Assay results reported in patent US20210382039A1, “METHOD FOR ASSESSING THE ABILITY OF A SUBSTANCE OR OF A COMPOSITION TO PREVENT, SLOW OR ELIMINATE THE SIGNS OF AGEING OF THE SKIN OR OF THE LIPS” (SOCIETE D'EXPLOITATION DE PRODUITS POUR LES INDUSTRIES …, priority 2018, published 2021).

Key:
[1] = test system: extracellular interleukin IL-6; experiment: Contagious aging (bystander effect) model: extracellular IL-6 by ELISA in R6 young fibroblasts treated with product, then MCR20 conditioned medium; assay type: cell-based, human; details: for Extracellular IL-6, N1i: R6 passage young human dermal fibroblasts, treated then placed in contact with MCR20 conditioned medium, compositions diluted in 1,3-propanediol to 0.1% by mass
Procedure: This method uses a specific antibody for human IL-6 attached to the bottom of the wells of a measuring plate. The samples to be assayed are added to the wells and the IL-6 present in the samples binds to the immobilized antibody. The wells are then washed and another biotinylated anti-human IL-6 antibody is added.
The wells are once again rinsed to remove the nonbound antibody, and streptavidin conjugated to the enzyme HRP (horseradish peroxidase) is added to the wells. The wells are once again rinsed and the HRP substrate tetramethylbenzidine is added to the wells.
The intensity of the color develops proportionately to the amount of IL-6 bound. The “stop” solution changes the color from blue to yellow, and the color intensity is measured at 450 nm by spectrophotometry. The IL-6 concentration is calculated by referring to a calibration range.
The particular process thus comprises the following steps: • Step i) of culturing of culturing human dermal fibroblasts, taken at the R19 passage in T25 flasks, • Step ii) of amplification of the cells obtained on conclusion of step i) to obtain a medium conditioned with senescent cells or “MC R20”. Amplification of the cells obtained on conclusion of step i) is performed by seeding said cells in Petri dishes at 0.3 M/Petri dish. After amplification for 4 days in Petri dishes, the culture medium of all the dishes was changed and then recovered after 48 hours of incubation. This recovered medium corresponds to the medium conditioned with senescent cells containing the SMS mediators (MCR20). • Step iii) of culturing human dermal fibroblasts, taken at the R5 passage in T25 flasks, • a step iv) of amplification of the cells obtained on conclusion of step iii) to obtain to obtain “young” or “R6” cells in the amplification phase, Steps iii) and iv) are performed in parallel with steps i) and ii).

β-galactosidase = experiment: Contagious aging (bystander effect) model: β-galactosidase activity by X-gal staining in R6 young fibroblasts treated with product, then MCR20 conditioned medium; assay type: cell-based; details: R6 passage young human dermal fibroblasts, treated then placed in contact with MCR20 conditioned medium; compositions diluted in 1,3-propanediol to 0.1% by mass
Procedure: Measurement of the activity of the β-galactosidase enzyme is performed at the metabolic level, and even more particularly with a measurement involving colorimetric enzymatic detection.
Briefly, the β-galactosidase present in the cells reacts specifically with one of its substrates, X-gal (or 5-bromo-4-chloro-3-indolyl-β-D-galactopyranoside (C14H15BrClNO6)) which is deposited on the cell lawns. This substrate is a galactoside, a galactose heteroside, bonded to a substituted indole nucleus.
The particular process thus comprises the following steps: • Step i) of culturing of culturing human dermal fibroblasts, taken at the R19 passage in T25 flasks, • Step ii) of amplification of the cells obtained on conclusion of step i) to obtain a medium conditioned with senescent cells or “MC R20”. Amplification of the cells obtained on conclusion of step i) is performed by seeding said cells in Petri dishes at 0.3 M/Petri dish. After amplification for 4 days in Petri dishes, the culture medium of all the dishes was changed and then recovered after 48 hours of incubation. […]

| SMILES | Extracellular IL-6, N1i [1] | β-galactosidase, N2i (β-galactosidase) | Ratio R1=[(N10−N1i)×100]/[(N10−N1)] for extracellular IL-6 ([1]; N1 = 8.96 (untreated, unstressed), N10 = 41.38 (untreated, MCR20)) |
| --- | --- | --- | --- |
| O=C1O[C@H]([C@@H](O)CO)C(O)=C1O [vitamin C, ascorbic acid, reference compound] | N1i = 27.31 ± 3.87 pg/μg of proteins |  |  |
| CC(=O)Oc1c(C)c(C)c2c(c1C)CC[C@@](C)(CCC[C@H](C)CCC[C@H](C)CCCC(C)C)O2 [vitamin E, D-α-tocopheryl acetate, reference compound] |  | N2i = 2.99 ± 0.45 number of “blue” positive cells/total number of cells |  |
| OCCCO [1,3-propanediol] | N1i = 37.05 ± 2.57 pg/μg of proteins | N2i = 13.40 ± 2.69 number of “blue” positive cells/total number of cells | R1 = 13.35 |
